The test system of this assay is TORC1 (p4EBP1 and pS6) and TORC2 (pPRAS40). The assay can be described thus: Human skin immunohistochemistry assay (skin biopsies, pathway inhibition). Type of assay: in vivo. The following applies: 6 mg QD, read-out: PD (% inhibition, H score) Skin: 4EBP1/PRAS40. The method, then: Human Skin Immunohistochemistry Assay.
Skin tissue was fixed in 10% neutral-buffered formalin solution for 24 hours and then processed and embedded in paraffin block. Sections (4 μm) were cut and mounted onto microscopic slides. Sections were incubated with primary antibodies (p4EBP1, pS6, or pRAS40) overnight and developed using a chromogenic substrate.
Pharmacodynamic (PD) endpoints were evaluated in surrogate (peripheral blood cells [PBCs], skin) and tumor tissues for the phosphorylation of TORC1-dependent markers (4EBP1/S6), and TORC2-dependent markers (AKT/PRAS40). 50 patients were treated in 3 intermittent dosing regimens; 21 in 6 cohorts ranging 7-40 mg QW, 20 in 5 cohorts ranging 6-20 mg QD×3d QW, and 9 in 3 cohorts ranging 7-13 mg QD×5d QW. […] The MTD for intermittent dosing was not reached. All adverse events (AEs) reported were reversible. The most common (≧20%, n=35) AEs considered possibly related to compound A reported in all 3 dosing regimens included nausea (51%), hyperglycemia (37%), mucosal inflammation (29%), rash (23%), asthenia (23%), vomiting (26%), and diarrhea (20%). The majority of AEs considered possibly related to compound A in any regimen were Grade 1 or 2. The only reported Grade≧3 AE (≧5%) possibly related to compound A in 3 regimens was lymphopenia (6%). Tables 4-9 show summaries of observed adverse events for various treatment regimens of the invention.

As for `CC(C)n1nc(-c2ccc3oc(N)nc3c2)c2c(N)ncnc21` [compound A], the inhibition at 6 mg was 60%.

The values above are taken from US20130209543A1, “ENHANCED TREATMENT REGIMENS USING MTOR INHIBITORS” (Intellikine LLC, priority 2011, published 2013).
